# Source: PubChem BioAssay AID2060601 (Molecular Pharmacology Branch, DTP, NCI, 2025)
# System: 874868-142-R-J2-PDC complex spheroids, growth % test/control
# Experiment: Anticancer human tumor 874868-142-R-J2-PDC patient-derived head and neck squamous carcinoma cell line growth inhibition [CLK]
# Settings: for IC50: curve of first compound; for viability, T/C: stronger effect = lower value
# Text: A high-throughput screen of multi-cell type tumor spheroids was designed to identify active combinations of […] and targeted small molecules. Complex spheroids include a stromal component modeled by human endothelial cells (HUVEC) and fibroblasts modeled by human mesenchymal stem cells (MSCs). The concentration ranges selected for each drug and investigational agent were based upon clinically achievable concentrations if the clinical Cmax of the agent was known.
# Compounds. The drugs and investigational agents: cirtuvivint (SM08502; NSC835563), CC-671 (NSC850746), vemurafenib (NSC761431), tapotoclax (NSC804041), sotorasib (NSC818433), adagrasib (NSC831453), MRTX-1133 (NSC836407), BAY2416964 (NSC825713), copanlisib (NSC816437), inavolisib (NSC800729), abemaciclib (NSC768073), osimertinib (NSC779217), entinostat (NSC756642), eltanexor (KPT-8602, NSC794443), venetoclax (NSC766270), ceralasertib (NSC777638), bortezomib (NSC756655), olaparib (NSC753686), talazoparib (NSC767125), alisertib (NSC759677), peposertib (NSC802822), gemcitabine (NSC613327), 5-fluorouracil (NSC19893), SN-38 (NSC673596), oxaliplatin (NSC266046), paclitaxel (NSC125973), and doxorubicin (NSC123127), were obtained from the National Cancer Institute (NCI) Developmental Therapeutics Program Chemical Repository. The FDA-approved anticancer drug set is available from the Developmental Therapeutics Program at https://dtp.cancer.gov/organization/dscb/obtaining/available plates.htm. […] The stock solutions were prepared in dimethyl sulfoxide (DMSO, Sigma-Aldrich, St. Louis, MO, cat. D2650), except for the platinum complexes which were prepared in saline (Quality Biological, Gaithersburg, MD, cat. 114-055-101), at 800-fold the tested concentration and stored at -70 degrees C prior to their use. All drugs and investigational agents were tested over a range starting from a high concentration at or near the clinical Cmax and decreasing in half-log increments. If the clinical Cmax for an agent had not been determined, the highest concentration tested was 10 microM.
# Cell Culture. All cells were maintained in an incubator at 37 degrees C and 5% CO2 with 95% humidity. The PDC lines were cultured according to standard operating procedures established by the NCI PDMR. Briefly, all PDCs were thawed and cultured in Matrigel-coated flasks prepared with a working solution of 1X Ham's F-12 nutrient mix, without supplementation (Invitrogen, Waltham, MA, cat. 11765054), 100 U/mL penicillin-streptomycin (Invitrogen, cat. 15140122), and 2.5% Matrigel (Corning Inc., Corning, NY, cat. 354248) for the first three passages. The 947758-054-R-J2-PDC line was cultured in 6B/Colon 1A media, which includes advanced DMEM/F-12 (Thermo Fisher Scientific, cat. 12634028), 10 mM HEPES (Thermo Fisher Scientific, cat. 15630080), 1X GlutaMAX supplement (Thermo Fisher Scientific, cat. 35050061), 0.1 mg/mL primocin (InvivoGen, cat. ant-pm-2), 10% defined fetal bovine serum, heat inactivated (HyClone Laboratories Inc., cat. SH30070.03HI), 1.25 mM N-Acetyl-L-cysteine (Sigma-Aldrich, cat. A9165), 10 mM nicotinamide (Sigma-Aldrich, cat. N0636), 1X B-27 supplement (Thermo Fisher Scientific, cat. 17504044), 1X N-2 supplement (Thermo Fisher Scientific, cat. 17502048), and 10 microM Y-27632 dihydrochloride (Tocris Bioscience, cat. 1254). The 876862-298-R-J1-PDC was cultured in 6E media, which includes all 6B/Colon 1A media components plus 50% L-WRN conditioned media (ATCC, cat. CRL-3276), 50 ng/mL recombinant human EGF recombinant protein (hEGF; Thermo Fisher Scientific, cat. PHG0311), 10 ng/mL recombinant human fibroblast growth factor 10 (hGFG-10; PeproTech, cat. 100-26), 1 ng/mL recombinant human fibroblast growth factor 2 (hFGF-2; PeproTech, cat. 100-18B), and 1 µM prostaglandin E2 (PGE2; Tocris, cat. 2296). The 227483-062-R1-J1-PDC line was cultured in Panc media, containing all 6E components except hFGF-2, with the addition of 500 nM SB-431542 (Selleckchem, cat. S1067) and 10 nM gastrin (Tocris, cat. 3006). […]
# [1] = second compound 0.0316 µM, first compound 0.0316 µM
# [2] = second compound 0.0316 µM, first compound 0.1 µM
# [3] = second compound 0.0316 µM, first compound 0.316 µM
# [4] = second compound 0.0316 µM, first compound 1 µM
# [5] = second compound 0.0316 µM, first compound 3.16 µM
# [6] = second compound 0.0316 µM, first compound 10 µM
# [7] = second compound 0.1 µM, first compound 0.0316 µM
# [8] = second compound 0.1 µM, first compound 0.1 µM
# [9] = second compound 0.1 µM, first compound 0.316 µM
# [10] = second compound 0.1 µM, first compound 1 µM
# [11] = second compound 0.1 µM, first compound 3.16 µM
# [12] = second compound 0.1 µM, first compound 10 µM
# [13] = second compound 0.316 µM, first compound 0.0316 µM
# [14] = second compound 0.316 µM, first compound 0.1 µM
# [15] = second compound 0.316 µM, first compound 0.316 µM
# [16] = second compound 0.316 µM, first compound 1 µM
# [17] = second compound 0.316 µM, first compound 3.16 µM
# [18] = second compound 0.316 µM, first compound 10 µM
# [19] = second compound 1 µM, first compound 0.0316 µM
# [20] = second compound 1 µM, first compound 0.1 µM
# [21] = second compound 1 µM, first compound 0.316 µM
# [22] = second compound 1 µM, first compound 1 µM
# [23] = second compound 1 µM, first compound 3.16 µM
# [24] = second compound 1 µM, first compound 10 µM
# [25] = second compound 3.16 µM, first compound 0.0316 µM
# [26] = second compound 3.16 µM, first compound 0.1 µM
# [27] = second compound 3.16 µM, first compound 0.316 µM
# [28] = second compound 3.16 µM, first compound 1 µM
# [29] = second compound 3.16 µM, first compound 3.16 µM
# [30] = second compound 3.16 µM, first compound 10 µM
# [31] = second compound 10 µM, first compound 0.0316 µM
# [32] = second compound 10 µM, first compound 0.1 µM
# [33] = second compound 10 µM, first compound 0.316 µM
# [34] = second compound 10 µM, first compound 1 µM
# [35] = second compound 10 µM, first compound 3.16 µM
# [36] = second compound 10 µM, first compound 10 µM
# 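Note: spheroids exposed to the compounds for 7 days.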
smiles,measurement,setting,value
C#Cc1c(F)ccc2cc(O)cc(-c3ncc4c(N5CC6CCC(C5)N6)nc(OCC56CCCN5CC(F)C6)nc4c3F)c12 (centres undefined) + CN1CCN(c2cc(C(=O)Nc3cc4cc(-c5cnn(C)c5)ccc4cn3)ccn2)CC1,IC50,second compound 0.0316 µM,8.54 µM
same,IC50,second compound 0.1 µM,1.41 µM
same,IC50,second compound 0.316 µM,< 0.0316 µM
same,IC50,second compound 1 µM,< 0.0316 µM
same,IC50,second compound 3.16 µM,< 0.0316 µM
same,IC50,second compound 10 µM,< 0.0316 µM
same,"viability, T/C",[1],98.2%
same,"viability, T/C",[2],85.1%
same,"viability, T/C",[3],76.3%
same,"viability, T/C",[4],73%
same,"viability, T/C",[5],49.8%
same,"viability, T/C",[6],51.2%
same,"viability, T/C",[7],69.2%
same,"viability, T/C",[8],74.1%
same,"viability, T/C",[9],68.8%
same,"viability, T/C",[10],51.2%
same,"viability, T/C",[11],41.5%
same,"viability, T/C",[12],54.2%
same,"viability, T/C",[13],21%
same,"viability, T/C",[14],24%
same,"viability, T/C",[15],17.3%
same,"viability, T/C",[16],13%
same,"viability, T/C",[17],15.5%
same,"viability, T/C",[18],15.4%
same,"viability, T/C",[19],0.39%
same,"viability, T/C",[20],0.42%
same,"viability, T/C",[21],0.39%
same,"viability, T/C",[22],0.91%
same,"viability, T/C",[23],0.5%
same,"viability, T/C",[24],1.33%
same,"viability, T/C",[25],0.37%
same,"viability, T/C",[26],2.5%
same,"viability, T/C",[27],0.31%
same,"viability, T/C",[28],0.32%
same,"viability, T/C",[29],0.26%
same,"viability, T/C",[30],4.54%
same,"viability, T/C",[31],0.53%
same,"viability, T/C",[32],1.9%
same,"viability, T/C",[33],3.6%
same,"viability, T/C",[34],0.18%
same,"viability, T/C",[35],0.9%
same,"viability, T/C",[36],6.16%
C=C(F)C(=O)N1CCN(c2nc(OCC3CCCN3C)nc3c2CCN(c2cccc4cccc(Cl)c24)C3)CC1CC#N (centres undefined) + CN1CCN(c2cc(C(=O)Nc3cc4cc(-c5cnn(C)c5)ccc4cn3)ccn2)CC1,IC50,second compound 0.0316 µM,4.16 µM
same,IC50,second compound 0.1 µM,2.8 µM
same,IC50,second compound 0.316 µM,< 0.0316 µM
same,IC50,second compound 1 µM,< 0.0316 µM
same,IC50,second compound 3.16 µM,< 0.0316 µM
same,IC50,second compound 10 µM,< 0.0316 µM
same,"viability, T/C",[1],99.9%
same,"viability, T/C",[2],85.3%
same,"viability, T/C",[3],92%
same,"viability, T/C",[4],93.2%
same,"viability, T/C",[5],60.8%
same,"viability, T/C",[6],15.7%
same,"viability, T/C",[7],69.1%
same,"viability, T/C",[8],70%
same,"viability, T/C",[9],75%
same,"viability, T/C",[10],62%
same,"viability, T/C",[11],48.8%
same,"viability, T/C",[12],4.16%
same,"viability, T/C",[13],16.7%
same,"viability, T/C",[14],17.8%
same,"viability, T/C",[15],22.6%
same,"viability, T/C",[16],16.4%
same,"viability, T/C",[17],23.8%
same,"viability, T/C",[18],0.16%
same,"viability, T/C",[19],0.51%
same,"viability, T/C",[20],0.57%
same,"viability, T/C",[21],2.72%
same,"viability, T/C",[22],0.61%
same,"viability, T/C",[23],0.21%
same,"viability, T/C",[24],0.13%
same,"viability, T/C",[25],0.32%
same,"viability, T/C",[26],0.27%
same,"viability, T/C",[27],0.26%
same,"viability, T/C",[28],0.45%
same,"viability, T/C",[29],1.88%
same,"viability, T/C",[30],0.15%
same,"viability, T/C",[31],0.24%
same,"viability, T/C",[32],0.24%
same,"viability, T/C",[33],2.62%
same,"viability, T/C",[34],0.28%
same,"viability, T/C",[35],0.53%
same,"viability, T/C",[36],0.23%
